Measured values as given in PMC4710522, “A Novel Triazolopyridine-Based Spleen Tyrosine Kinase Inhibitor That Arrests Joint Inflammation” (PLoS ONE, 2016).

Columns and labels:
Format in all cases: biochemical
NEK7_h = molecular target: T1, NEK7_h (Homo sapiens, UniProt Q8TDX7); experiment: SelectScreen kinase assay; details: KM ATP, read-out: % control
T1 construct: purchased Life Technologies (Invitrogen) SelectScreen, Z'-LYTE / Adapta

PDE5 = molecular target: T2, PDE5 (Homo sapiens, UniProt O76074); experiment: non-kinase enzyme panel (CEREP)
T2 construct: purchased CEREP (contract assay)
Method: (§1) Syk kinase mode of inhibition studies, including parameters described in Fig 1, were conducted on the LC3000 platform by Caliper Life Sciences (Hopkinton, MA) according to standard protocols developed by the supplier. […] Non-kinase enzyme assays and GPCR, ion channel, and transporter binding assays were run by CEREP (France). Non-GLP manual patch clamp hERG assays were run by ChanTest (Cleveland, Ohio). Vivid® Assay kits (Life Technologies) were used to measure the cytochrome P450 inhibition of the compound against CYP3A, CYP2C9, CYP2C19, CYP2D6, and CYP1A2, as described.

5-lipoxygenase = molecular target: T3, 5-lipoxygenase (Homo sapiens, UniProt P09917); experiment: non-kinase enzyme panel (CEREP)
T3 construct: CEREP (contract assay)
Method: as §1

PDE2A = molecular target: T4, PDE2A (Homo sapiens, UniProt O00408); experiment: non-kinase enzyme panel (CEREP)
T4 construct: purchased CEREP (contract assay)
Method: as §1

CK1-gamma3_h = molecular target: T5, CK1-gamma3_h (Homo sapiens, UniProt Q9Y6M4); experiment: SelectScreen kinase assay; details: KM ATP, read-out: % control
T5 construct: purchased Life Technologies (Invitrogen) SelectScreen, Z'-LYTE / Adapta

KDR = molecular target: T6, KDR (Homo sapiens, UniProt P35968); experiment: KDR HTRF assay; details: in-house, mean ± SD
T6 construct: purchased Life Technologies PV3660
Method: CC-509 was prepared at a concentration of 1.5 mM in DMSO followed by 3-fold dilutions in Greiner […] polypropylene plates. A 1:4 dilution of compounds by 8 μL/well transfer from the polypropylene plates to 24 μL/well Assay Buffer (50 mM HEPES pH 7.6, 1 mM DTT, 10 mM MgCl2, 0.01% Triton X-100, 0.01% BSA and 0.1 mM EDTA) in Costar 3573 384 well black plates was then performed. Kinase (13 μL/well of 7.7 ng/ml KDR (Life Technologies, Grand Island, NY PV3660) in Assay Buffer) or Assay Buffer only (background controls) were added to Costar 3573 384-well black plates and compound (2 μL/ well) was added from the 1:4 dilution plate. […] Time resolved fluorescence was read in assay plates on a PerkinElmer EnVision. […] The IC50 value was determined as described in the data fitting section below.
For the TEL-Syk assay, the intensity values for the 700 and 800 channel were exported as text files in ActivityBase (IDBS, Guildford, UK) to derive the ratios that reflect kinase activity. […] For the JAK2 HEL and Ramos NFAT β-lactamase assays, the fluorescence values obtained at 460 nm and 530 nm were exported into ActivityBase to calculate response ratios. […] Evans blue dye extravasation was expressed as mean ± SEM and % inhibition for the test article groups was normalized to the cromolyn positive control. […] Data is expressed as mean ± SEM of each group with n = 6–12. […]

PhK-gamma1_h = molecular target: T7, PhK-gamma1_h (Homo sapiens, UniProt Q16816); experiment: SelectScreen kinase assay; details: KM ATP, read-out: % control
T7 construct: purchased Life Technologies (Invitrogen) SelectScreen, Z'-LYTE / Adapta
T7 sequence (Q16816 whole entry): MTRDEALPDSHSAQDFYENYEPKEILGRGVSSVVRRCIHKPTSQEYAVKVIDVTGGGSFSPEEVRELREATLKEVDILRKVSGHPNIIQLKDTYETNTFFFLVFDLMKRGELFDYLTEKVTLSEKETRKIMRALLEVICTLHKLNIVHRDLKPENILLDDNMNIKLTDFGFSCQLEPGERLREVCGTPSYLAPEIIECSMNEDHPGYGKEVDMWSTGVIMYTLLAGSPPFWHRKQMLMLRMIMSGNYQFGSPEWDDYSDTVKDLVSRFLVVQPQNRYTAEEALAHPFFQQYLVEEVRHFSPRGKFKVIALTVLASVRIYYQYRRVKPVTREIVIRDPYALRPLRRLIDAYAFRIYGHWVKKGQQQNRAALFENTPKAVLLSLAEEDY

T3 sequence (P09917 whole entry, species assumed): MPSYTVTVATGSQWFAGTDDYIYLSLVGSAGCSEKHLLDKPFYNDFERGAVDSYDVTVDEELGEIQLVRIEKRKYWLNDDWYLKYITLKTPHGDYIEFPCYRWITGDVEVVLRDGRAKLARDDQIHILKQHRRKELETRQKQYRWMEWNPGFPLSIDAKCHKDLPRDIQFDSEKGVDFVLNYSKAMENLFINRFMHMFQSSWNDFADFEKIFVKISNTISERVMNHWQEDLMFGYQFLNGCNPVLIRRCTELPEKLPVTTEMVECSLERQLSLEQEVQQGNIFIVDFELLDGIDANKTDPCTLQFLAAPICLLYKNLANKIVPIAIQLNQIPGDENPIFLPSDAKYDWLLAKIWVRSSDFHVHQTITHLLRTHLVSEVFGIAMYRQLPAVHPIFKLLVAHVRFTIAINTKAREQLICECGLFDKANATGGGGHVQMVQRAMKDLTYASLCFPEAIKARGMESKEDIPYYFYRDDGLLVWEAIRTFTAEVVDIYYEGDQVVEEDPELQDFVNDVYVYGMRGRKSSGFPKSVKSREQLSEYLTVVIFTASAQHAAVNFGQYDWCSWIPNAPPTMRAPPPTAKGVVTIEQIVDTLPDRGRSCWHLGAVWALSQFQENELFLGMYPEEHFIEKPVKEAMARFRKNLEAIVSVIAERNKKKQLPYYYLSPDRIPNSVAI
T6 sequence (P35968 20-1356): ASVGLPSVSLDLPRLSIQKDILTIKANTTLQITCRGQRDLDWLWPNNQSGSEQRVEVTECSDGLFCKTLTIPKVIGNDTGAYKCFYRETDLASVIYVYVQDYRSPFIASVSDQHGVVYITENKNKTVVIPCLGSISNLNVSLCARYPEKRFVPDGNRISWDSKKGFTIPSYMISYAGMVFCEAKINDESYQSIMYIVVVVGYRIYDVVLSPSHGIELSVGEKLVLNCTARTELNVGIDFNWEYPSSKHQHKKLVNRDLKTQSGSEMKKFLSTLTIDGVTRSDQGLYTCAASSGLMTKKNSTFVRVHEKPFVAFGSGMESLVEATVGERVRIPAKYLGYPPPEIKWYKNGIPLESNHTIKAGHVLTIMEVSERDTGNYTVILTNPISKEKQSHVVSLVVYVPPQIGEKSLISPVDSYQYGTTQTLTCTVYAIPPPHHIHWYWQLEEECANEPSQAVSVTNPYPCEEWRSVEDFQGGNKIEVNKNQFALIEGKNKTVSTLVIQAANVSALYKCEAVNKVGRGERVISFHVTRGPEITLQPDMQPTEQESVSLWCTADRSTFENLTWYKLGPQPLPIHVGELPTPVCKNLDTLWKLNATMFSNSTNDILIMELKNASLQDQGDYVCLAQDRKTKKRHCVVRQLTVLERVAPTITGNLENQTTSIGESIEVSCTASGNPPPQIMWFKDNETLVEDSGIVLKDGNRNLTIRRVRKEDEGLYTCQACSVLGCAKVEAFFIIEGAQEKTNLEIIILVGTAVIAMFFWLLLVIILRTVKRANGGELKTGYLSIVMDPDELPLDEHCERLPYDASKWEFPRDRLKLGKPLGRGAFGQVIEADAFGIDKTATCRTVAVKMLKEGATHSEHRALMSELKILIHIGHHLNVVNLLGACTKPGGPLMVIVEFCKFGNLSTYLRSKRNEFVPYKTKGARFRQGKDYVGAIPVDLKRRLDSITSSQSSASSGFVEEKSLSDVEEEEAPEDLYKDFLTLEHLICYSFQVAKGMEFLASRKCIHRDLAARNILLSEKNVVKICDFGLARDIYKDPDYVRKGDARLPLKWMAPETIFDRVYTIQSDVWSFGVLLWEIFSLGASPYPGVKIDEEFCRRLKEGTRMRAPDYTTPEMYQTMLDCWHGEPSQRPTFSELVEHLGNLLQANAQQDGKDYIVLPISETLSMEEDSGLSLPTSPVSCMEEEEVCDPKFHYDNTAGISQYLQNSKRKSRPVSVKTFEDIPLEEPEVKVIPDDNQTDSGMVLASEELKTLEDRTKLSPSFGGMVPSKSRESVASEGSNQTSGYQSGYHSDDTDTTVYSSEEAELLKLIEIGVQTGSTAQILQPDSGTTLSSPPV
T5 sequence (Q9Y6M4 whole entry): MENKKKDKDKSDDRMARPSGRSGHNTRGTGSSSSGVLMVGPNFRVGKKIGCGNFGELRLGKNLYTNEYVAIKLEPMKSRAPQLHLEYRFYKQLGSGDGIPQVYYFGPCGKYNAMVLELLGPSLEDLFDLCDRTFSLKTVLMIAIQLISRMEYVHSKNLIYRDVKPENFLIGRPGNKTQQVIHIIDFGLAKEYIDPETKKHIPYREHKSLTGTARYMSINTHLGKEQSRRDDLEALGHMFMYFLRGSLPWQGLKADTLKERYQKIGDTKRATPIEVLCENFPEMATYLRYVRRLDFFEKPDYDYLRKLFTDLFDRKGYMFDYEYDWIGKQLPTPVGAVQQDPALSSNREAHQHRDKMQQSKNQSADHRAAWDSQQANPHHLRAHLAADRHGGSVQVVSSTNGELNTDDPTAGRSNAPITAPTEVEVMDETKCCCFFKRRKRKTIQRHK
T4 sequence (O00408 whole entry, species assumed): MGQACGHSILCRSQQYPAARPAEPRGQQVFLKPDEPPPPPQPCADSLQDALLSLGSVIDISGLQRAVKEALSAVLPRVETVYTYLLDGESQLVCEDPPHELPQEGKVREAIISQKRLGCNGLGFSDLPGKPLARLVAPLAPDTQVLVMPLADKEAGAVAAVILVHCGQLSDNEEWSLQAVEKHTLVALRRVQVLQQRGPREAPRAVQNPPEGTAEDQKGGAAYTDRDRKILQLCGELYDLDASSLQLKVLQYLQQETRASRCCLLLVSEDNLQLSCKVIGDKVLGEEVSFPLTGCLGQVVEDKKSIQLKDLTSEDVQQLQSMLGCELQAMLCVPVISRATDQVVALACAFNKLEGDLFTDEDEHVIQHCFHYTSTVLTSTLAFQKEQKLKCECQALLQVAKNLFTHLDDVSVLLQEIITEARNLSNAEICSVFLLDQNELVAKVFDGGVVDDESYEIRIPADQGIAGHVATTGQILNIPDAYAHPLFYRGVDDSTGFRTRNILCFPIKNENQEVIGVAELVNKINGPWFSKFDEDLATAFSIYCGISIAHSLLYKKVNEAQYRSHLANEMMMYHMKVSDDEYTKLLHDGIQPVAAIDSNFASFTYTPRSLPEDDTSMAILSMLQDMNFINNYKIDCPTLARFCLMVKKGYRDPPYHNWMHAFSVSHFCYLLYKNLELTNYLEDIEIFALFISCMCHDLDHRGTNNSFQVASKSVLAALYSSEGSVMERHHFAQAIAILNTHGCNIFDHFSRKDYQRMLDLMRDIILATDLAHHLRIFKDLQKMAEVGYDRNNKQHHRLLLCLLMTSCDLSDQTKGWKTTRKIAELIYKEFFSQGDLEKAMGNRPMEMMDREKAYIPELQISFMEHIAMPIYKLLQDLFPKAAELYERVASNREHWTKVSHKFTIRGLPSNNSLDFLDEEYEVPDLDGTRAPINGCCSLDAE
T1 sequence (Q8TDX7 whole entry): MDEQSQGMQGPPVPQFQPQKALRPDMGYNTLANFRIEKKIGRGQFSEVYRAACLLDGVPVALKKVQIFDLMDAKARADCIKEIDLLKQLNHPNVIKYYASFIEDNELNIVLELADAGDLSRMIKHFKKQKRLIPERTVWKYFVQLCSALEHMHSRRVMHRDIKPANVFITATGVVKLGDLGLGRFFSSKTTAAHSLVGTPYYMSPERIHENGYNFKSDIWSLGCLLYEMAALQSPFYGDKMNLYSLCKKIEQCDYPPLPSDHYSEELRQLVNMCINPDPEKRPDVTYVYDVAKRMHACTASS

With `c1cc(CC2CCOCC2)n2nc(Nc3ccc4c(NC5CCOCC5)n[nH]c4c3)nc2c1` [CC-509, [3-(2H-3,4,5,6-tetrahydropyran-4-ylamino)(1H-indazol-6-yl)][5-(2H-3,4,5,6-tetrahydropyran-4-ylmethyl)(2H-1,2,4-triazolo[1,5-a]pyridin-2-yl)]amine] the remaining activity at 3 µM (NEK7_h) was 102%, the inhibition at 10 µM (PDE5) was 90% and the inhibition at 10 µM (5-lipoxygenase) was 73%. For the same compound, the inhibition at 10 µM (PDE2A) was 89%, the remaining activity at 3 µM (CK1-gamma3_h) was 50% and the IC50 (KDR) was 150 ± 30 nM. It also gave a remaining activity at 3 µM (PhK-gamma1_h) of 75%.
